Measured values from US5770573A, “CS-1 peptidomimetics, compositions and methods of using the same” (Cytel Corporation, priority 1995, dated 1998).
Square brackets hold non-standard residues; d marks the D form. Peptide text beside a SMILES is read from it. * marks the point of attachment. PhAc = O=C(Cc1ccccc1)*

Columns and labels:
[1] = system: rabbit cardiac allograft coronary arteries; experiment: Rabbit cardiac allograft model; assay type: in vivo; as to Expression on Coronary Arteries: ICAM-1: key: -: negative; ±: minimal; +: little; ++: moderately abundant; +++: very abundant; as to Expression on Coronary Arteries: Macrophages: key: -: negative; ±: minimal; +: little; ++: moderately abundant; +++: very abundant; as to Expression on Coronary Arteries: T cells: key: -: negative; ±: minimal; +: little; ++: moderately abundant; +++: very abundant; as to Expression on Coronary Arteries: Total Fibronectin: key: -: negative; ±: minimal; +: little; ++: moderately abundant; +++: very abundant
Text: New Zealand white rabbit SPF hearts were allografted into the necks of similar rabbits to assay a graft-vs-host immunorejection model and the affect of a contemplated compound on that immunoinflammatory response.
Experimental animal model New Zealand white female rabbits (Charles River Lab., Saint Laurent, Quebec), between 3.5 and 4 kg underwent heterotopic cardiac transplant following an experimental protocol previously described [Alonso et al., Am. J. Pathol., 87:415-442 (1977); Clausell et al., Circulation, 89:2768-2779 (1994)]. The animals were unselected to favor an HLA-mismatch, the host rabbits were Pasteurella-free and the donors, outbred animals. Both host and donor rabbits were fed Purina 5321-0.5 percent cholesterol diet (Research Diets Inc., New Brunswick, N.J.), a strategy that has proven useful in accelerating the process of allograft arteriopathy [Alonso et al., Am. J. Pathol., 87:415-442 (1977)]. The diet was commenced four days prior to the transplant and continued in the recipient of the transplant until the completion of the experimental period.
The technique of heterotopic cardiac transplantation has been previously described [Clausell et al., Circulation, 89:2768-2779 (1994)]. Briefly, a vertical incision was performed in the anterior aspect of the neck of the recipient rabbit and the left common carotid artery and the ipsilateral external jugular vein were isolated. The cardiac allograft was placed in the neck by anastomosing the aorta end-to-side to the recipient's carotid artery and the pulmonary end-to-side to the recipient's external jugular vein, following a total period of ischemia for the donor hearts of approximately 30 minutes. Postoperative care was in compliance with the Principles of Laboratory Animal Care formulated by the Canadian National Society for Medical Research.
Beginning the day of the transplant, the animals were randomized and treated with either scrambled compound (control group) at 1 mg/kg s.c. or the inhibitor compound at 1 mg/kg s.c. The doses of the compounds were empirically extrapolated to the in vivo model based on preliminary in vitro studies, of Table 1. No other immunosuppression therapy was administered. The grafts were monitored daily by palpation and maintained for 7 to 8 days, a previously described endpoint that was associated with myocardial rejection (impaired cardiac contractility) and development of the allograft arteriopathy in this model [Clausell et al., Circulation, 89:2768-2779 (1994)]. A total of fourteen animals were studied in the control (n=7) and treated (n=7) groups.
Preparation of the hearts The animals were sacrificed using a lethal dose of euthanol (480 mg i.v.) (MTC Pharmaceutical, Cambridge, Oreg.), host and donor hearts were removed, and the coronary arteries were perfused with saline through the aorta, followed by light fixation by perfusion with 2 percent paraformaldehyde (Sigma, St, Louis, Mo.). […] Different sections of the hearts were either saved in 10 percent formalin (BDH Inc., Toronto, ON) for light microscopy studies or immediately frozen in O.T.C. Compound Tissue Tek (Miles Inc., Elkart, In.) for specific immunohistochemistry studies.
Three different paraffin-embedded tissue sections from host and donor hearts from both control and treated rabbits were stained by the Movat pentachrome method for light microscopy. Morphometric analysis was performed using a Zeiss microscope attached to a computer-generated video analysis system (Perceptics Inc., NuVision software), as described in Clausell et al., Circulation, 89:2768-2779 (1994). The number of vessels with intimal lesions were counted in all three heart sections from each animal studied and are expressed as a percentage of the total vessel number.
In the host hearts, 999 vessels in the control group and 1054 vessels in the treated group were analyzed. In the donor hearts, 827 vessels in the control group and 617 vessels in the treated group were analyzed. […]

[2] = system: delayed-type hypersensitivity murine model; experiment: Adoptive transfer delayed type hypersensitivity in mice (oxazolone); assay type: in vivo, mouse; conditions: 6 mg/kg/day s.c. by implanted pump for 24 hours; versus saline
Protocol: An adoptive transfer delayed-type hypersensitivity murine model has been developed using splenic T cells primed to oxazolone. This model is described in Elices et al., Clin. Exp. Rheum., 11 (Suppl. 8):577-580 (1993), whose procedures were followed here.
Thus, BALB/c mice were shaved on the belly and painted (50 μl on the belly and 5 μl on each paw) with three percent oxazolone in acetone/olive oil (4:1) at days zero and 1. At day 5, the mice were sacrificed, their spleens removed, and splenic T cells were obtained via nylon wool columns.
Normal saline or saline containing 25×10^6 /animal of the oxazolone-immune T cells were separately injected into naive mice. The mice were then challenged by painting 10 μl of 2 percent oxazolone onto one ear each. All procedures were carried out under sterile conditions and in endotoxin-free buffers.
Prior to challenge or saline injection, the mice were implanted with pumps that subcutaneously administered normal saline, normal saline containing the compound, Compound ID No. 896.52, N-phenylacetyl-Leu-Asp-Phe-D-Pro-NH2, or normal saline containing a compound with a scrambled sequence continually at 6 mg/kg/day for a 24-hour time period. The swelling diameter at the site of challenge or saline injection was measured with a microcaliper 24 hours thereafter.
An expanded study was carried out as described above except that a scrambled compound control was not used as a control for further inhibitor compounds of Table 1 with larger groups of mice. Statistical analyses were carried out versus injection of vehicle alone.

[3] = system: Porcine peripheral blood lymphocytes; experiment: In vitro porcine allograft model: transendothelial lymphocyte migration; assay type: cell-based; conditions: 10 μg/ml in the medium; IL-1β-stimulated SMC
Protocol: A similar study was carried out in vitro using porcine coronary artery endothelial cells (EC; as are present in the IEL) and smooth muscle cells (SMC; as are present in the medial layer of the artery). The two cell types were cultured using a membrane transwell system, with the SMC on the bottom layer in M-199 medium (Gibco Labs.). The SMC were stimulated with 100 ng/ml of interleukin-1β (IL-1β) for 24 hours prior to the start of the assay. Porcine peripheral blood lymphocytes were separated by Ficoll-Hypaque, radiolabeled and incubated overnight (about 18 hours) on the EC.
Transendothelial lymphocyte migration in the IL-1β-stimulated SMC was observed as compared to unstimulated SMC (p<0.05).

## CC(C)C[C@H](NC(=O)[C@H](CC(=O)O)NC(=O)Cc1ccccc1)C(=O)N[C@@H](Cc1ccccc1)C(=O)N1CCC[C@@H]1C(N)=O [Compound ID No. 1066.02, N-phenylacetyl-Asp-Leu-Phe-D-Pro-NH2, reference compound] (PhAc-DLF[dP]-NH2)
[1]; 1 mg/kg s.c., 7 to 8 days
  Expression on Coronary Arteries: ICAM-1: +
  Expression on Coronary Arteries: Macrophages: +
  Expression on Coronary Arteries: T cells: ++
  Expression on Coronary Arteries: Total Fibronectin: ++
  Expression on Coronary Arteries: VCAM-1: +
[1]; 1 mg/kg s.c., 7 to 8 days, immunoperoxidase score
  Expression on Coronary Arteries: MHC Class II: ++
[1]; donor hearts, 1 mg/kg s.c.
  Vessel Intimal Thickening: Percent of Vessels: 88%
  Vessel Intimal Thickening: Severity (Percent of Vessel area): 36%
[1]; host heart
  Baseline (rabbit own host heart) of incidence: 1%
  Baseline (rabbit own host heart) of severity: 12%
[2]
  swelling at challenge site (initial study, FIG. 5): no reduction of inflammation
[3]
  reduction of lymphocyte migration: did not reduce migration
